Measured values published in patent US8530434B2, “Nitroxide free radical synergized antineoplastic agents” (The Trustees of California State University, priority 2006, dated 2013).
Entries after “also recorded” stand apart in the source; their conditions may differ.

Key:
[1] = system: MCF-7, human breast cancer cells and KB, human liver cancer cells; experiment: LDH measurement of cytotoxicity; conditions: for % cytotoxicity: LDH assay, 72 hours incubation, same conditions and same concentrations, rank among the four treatments, cell line not specified
Description: MCF-7, human breast cancer cells and KB, human liver cancer cells were maintained in an RPMI 1640 medium, which was supplemented with 10% (v/v) heat-inactivated FBS and 1% (v/v) penicillin-streptomycin (100 U/mL penicillin G and 100 μg/mL streptomycin). The cells were incubated and then allowed to grow into a monolayer at a Petri dish at 37° C. in 5% CO2 and 90% relative humidity. The cells were detached by trypsinisation. Specifically, to detach the monolayer of cells, the medium was removed from the cell culture dish and the cells were washed by PBS buffer solution. Then 1 mL of the enzyme of trypsin was transferred to the cell dish and then the dish was incubated for 3 min. After the incubation, we transferred 4 mL of the RPMI 1640 medium to the cell dish and pipetted the cell suspension up and down to mix them well. The cell suspension was examined by inverted phase contrast microscope to make sure cells were separated into a single cell suspension. We transferred the cell suspension to a 10 mL-tube and centrifuged it to separate cell pellet from the medium. The cells were washed twice in the RPMI 1640 medium by centrifugation at 300×g for 5 min, and then the washed cells were re-suspended in 10 mL of medium. Cell number and viability were determined by using a dye of trypan blue, a special counting chamber, the hemocytometer and microscope. The cell density was calculated by the formula, cell concentration=(N1+N2+N3+N4+N5)×4×10^3 cells/mL, where N1 to N5 denote the counting numbers in the chamber. The cell suspension was diluted to a final concentration of 100,000 cells/mL in the RPMI 1640 medium.
The cells were initially seeded in a 96-well plate with a cell density of 10,000 cells per well by transferring 100 μL of 100,000 cells/mL suspension to each well using a multi-pipette. The 96-well plate was incubated for 24 hours at 37° C. in a humidified, 5% CO2 atmosphere. After incubation of 24 h, the growth medium was removed and replaced with 100 μL of fresh medium with different concentrations of drugs in 3 repeats.
Performed serial two-fold dilution from Row H to Row A. Use extra column as the negative control containing 100 μL of the medium and cells only. Before the drug solutions were administered, removed the growth medium from each well and then replace 100 μL of each drug solution. Each concentration had 3 repeats. Incubate the plate for 72 hours.
10 μl of Lysis Solution was added from row A to H, and incubated for 45 minutes in a humidified chamber at 37° C., under 5% CO2.
50 μl supernatant was transferred from all wells to a fresh 96-well flat bottom enzymatic assay plate. […] 50 μl Stop Solution was added to each well, and the absorbances were recorded at a wavelength of 490 nm within one hour after adding the stop solution.

[2] = Solubility in D2O (sample preparation for NMR)
Source text: (§1) We did the ^1H and ^31P NMR experiments at a 600 MHz NMR spectrometer for all three samples.

[3] = system: short single strand DNA units comprising of 3′-ATCGT-5′; experiment: 1H and 31P NMR study of interaction with short single strand DNA; assay type: binding; conditions: 1:1 molar ratio with DNA in DMSO-d6, 600 MHz NMR
Source text: as §1

Structure (SMILES)	% cytotoxicity [1]	potency compared with co-administration of the two drugs ([1]; summary statement)	solubility in D2O [2]	interaction with DNA (changes of 1H and 31P NMR spectra) [3]
CC1(C)CC(OC(=O)CCCc2ccc(N(CCCl)CCCl)cc2)CC(C)(C)N1[O] [chlorambucil-TEMPOL adduct]	the most % cytotoxicity	higher potency than mere co-administration of the two drugs	weakly soluble	interact with the DNA collaboratively
O=C(O)CCCc1ccc(N(CCCl)CCCl)cc1 [chlorambucil]	the third	–	weakly soluble	interaction of the alkylating agent with DNA
CC1(C)CC(O)CC(C)(C)N1[O] [TEMPOL, 4-hydroxy-2,2,6,6-tetramethylpiperidine-N-oxyl]	the least; also recorded: very low % cytotoxicity	–	–	interacts with DNA
